Measurements from patent publication US20190194209A1, “PYRAZOLE CARBOXAMIDE COMPOUNDS AND METHODS OF USE” (Genentech, Inc., priority 2014, published 2019).
Read-outs that look alike come from different tables or passages of the source.

What was measured:
[1] = molecular target: T1, full length human wildtype Btk (Homo sapiens, UniProt Q06187); experiment: Biochemical Btk Kinase Assay (Example 901); conditions: read-out: BTK LC3K (Ki)
T1 construct: V5 (C); 6xHis (C); made in house; host or cells: Sf9 cells (baculovirus, pFastBac)
T1 sequence (Q06187 whole entry): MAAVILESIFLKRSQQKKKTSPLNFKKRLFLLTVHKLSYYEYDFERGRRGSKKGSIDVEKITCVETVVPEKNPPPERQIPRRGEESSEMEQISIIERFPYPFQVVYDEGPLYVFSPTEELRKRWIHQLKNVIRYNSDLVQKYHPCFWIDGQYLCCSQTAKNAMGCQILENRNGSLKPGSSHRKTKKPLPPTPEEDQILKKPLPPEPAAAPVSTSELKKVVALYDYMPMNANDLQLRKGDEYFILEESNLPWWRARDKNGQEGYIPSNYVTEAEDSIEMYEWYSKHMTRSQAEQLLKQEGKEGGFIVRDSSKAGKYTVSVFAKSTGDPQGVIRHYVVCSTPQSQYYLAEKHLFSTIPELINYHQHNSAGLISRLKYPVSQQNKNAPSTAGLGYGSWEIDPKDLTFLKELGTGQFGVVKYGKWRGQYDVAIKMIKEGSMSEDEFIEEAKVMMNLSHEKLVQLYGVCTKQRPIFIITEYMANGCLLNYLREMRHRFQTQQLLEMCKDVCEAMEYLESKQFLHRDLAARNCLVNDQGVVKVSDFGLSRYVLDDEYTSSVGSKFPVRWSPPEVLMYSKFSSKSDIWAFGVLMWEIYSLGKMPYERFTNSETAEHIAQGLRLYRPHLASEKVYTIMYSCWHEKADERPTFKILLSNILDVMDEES
Description: Formula I compounds were tested by a standard biochemical Btk, Kinase Assay (Example 901). A generalized procedure for a standard biochemical Btk, Kinase Assay that can be used to test Formula I compounds is as follows. A master mix minus Btk enzyme is prepared containing 1× Cell Signaling kinase buffer (25 mM Tris-HCl, pH 7.5, 5 mM beta-glycerophosphate, 2 mM dithiothreitol, 0.1 mM Na3VO4, 10 mM MgCl2), 0.5 μM Promega PTK Biotinylated peptide substrate 2, and 0.01% BSA. A master mix plus Btk enzyme is prepared containing 1× Cell Signaling kinase buffer, 0.5 μM (micromolar) PTK Biotinylated peptide substrate 2, 0.01% BSA, and 100 ng/well (0.06 mU/well) Btk enzyme. Btk enzyme is prepared as follows: full length human wildtype Btk (accession number NM-000061) with a C-terminal V5 and 6×His tag was subcloned into pFastBac® vector (Invitrogen/Life Technologies) for making baculovirus carrying this epitope-tagged Btk. Generation of baculovirus is done based on Invitrogen's instructions detailed in its published protocol “Bac-to-Bac Baculovirus Expression Systems” (Invitrogen/Life Technologies, Cat. Nos. 10359-016 and 10608-016). Passage 3 virus is used to infect Sf9 cells to overexpress the recombinant Btk protein. The Btk protein is then purified to homogeneity using Ni-NTA column. The purity of the final protein preparation is greater than 95% based on the sensitive Sypro-Ruby staining. A solution of 200 μM ATP is prepared in water and adjusted to pH 7.4 with 1N NaOH. A quantity of 1.25 μL (microliter) of compounds in 5% DMSO is transferred to a 96-well 2 area Costar polystyrene plate. Compounds are tested singly and with an 11-point dose-responsive curve (starting concentration is 10 μM; 1:2 dilution). A quantity of 18.75 μL of master mix minus enzyme (as a negative control) and master mix plus enzyme is transferred to appropriate wells in 96-well 2 area costar polystyrene plate. 5 μL of 200 μM ATP is added to that mixture in the 96-well 2 area Costar polystyrene plate for final ATP concentration of 40 μM. The reaction is allowed to incubate for 1 hour at room temperature. The reaction is stopped with Perkin Elmer 1× detection buffer containing 30 mM EDTA, 20 nM SA-APC, and 1 nM PT66 Ab. The plate is read using time-resolved fluorescence with a Perkin Elmer Envision using excitation filter 330 nm, emission filter 665 nm, and 2nd emission filter 615 nm. IC50 values are subsequently calculated. Alternatively, the Lanthascreen assay can be used to evaluate Btk activity through quantification of its phosphorylated peptide product. The FRET (Fluorescence Resonance Energy Transfer) that occurs between the fluorescein on the peptide product and the terbium on the detection antibody decreases with the addition of inhibitors of Btk that reduce the phosphorylation of the peptide. In a final reaction volume of 25 μL (microliters), Btk (h) (0.1 ng/25 μl reaction) is incubated with 50 mM Hepes pH 7.5, 10 mM MgCl2, 2 mM MnCl2, 2 mM DTT, 0.2 mM NaVO4, 0.01% BSA, and 0.4 uM fluorescein poly-GAT. The reaction is initiated by the addition of ATP to 25 μM (micromolar) the Km of ATP. After incubation for 60 minutes at room temperature, the reaction is stopped by the addition of a final concentration of 2 nM Tb-PY20 detection antibody in 60 mM EDTA for 30 minutes at room temperature. Detection is determined on a Perkin Elmer Envision with 340 nm excitation and emission at 495 nm and 520 nm. Exemplary Btk inhibition […] values are in Table 1.

[2] = test system: CD69 production by B lymphocytes in human whole blood activated with goat F(ab')2 anti-human IgM; experiment: CD69 Whole Blood Assay (Example 907); type: cell-based; conditions: Lymphocyte, read-out: CD69 Hu Blood FACS (IC70)
Source text: A CD69 Whole Blood Assay can be conducted on Formula I compounds to determine the ability of compounds to inhibit the production of CD69 by B lymphocytes in human whole blood activated by crosslinking surface IgM with goat F(ab′)2 anti-human IgM (Example 907). CD69 is a type II C-type lectin involved in lymphocyte migration and cytokine secretion. CD69 expression represents one of the earliest available indicators of leukocyte activation and its rapid induction occurs through transcriptional activation (Vazquez et al (2009) Jour. of Immunology Published Oct. 19, 2009, doi: 10.4049/jimmunol.0900839). Concentration-dependent inhibition of antigen receptor stimulation by selective Btk inhibitors induces cell surface expression of the lymphocyte activation marker CD69 (Honigberg et al (2010) Proc. Natl. Acad. Sci. 107(29):13075-13080). Thus, CD69 inhibition by selective Btk inhibitors may be correlated with therapeutic efficacy of certain B-cell disorders.
Human blood is obtained from healthy volunteers, with the following restrictions: 1 week drug-free, non-smokers. Blood (approximately 20 mls to test 8 compounds) is collected by venipuncture into Vacutainer® (Becton, Dickinson and Co.) tubes with sodium heparin.
Solutions of Formula I compounds at 10 mM in DMSO are diluted 1:10 in 100% DMSO, then are diluted by three-fold serial dilutions in 100% DMSO for a ten point dose-response curve. The compounds are further diluted 1:10 in PBS and then an aliquot of 5.5 μl of each compound is added in duplicate to a 2 ml 96-well plate; 5.5 μl of 10% DMSO in PBS is added as control and no-stimulus wells. Human whole blood—HWB (100 μl) is added to each well. After mixing the plates are incubated at 37° C., 5% CO2, 100% humidity for 30 minutes. Goat F(ab′)2 anti-human IgM (10 μl of a 500 μg/ml solution, 50 μg/ml final) is added to each well (except the no-stimulus wells) with mixing and the plates are incubated for an additional 20 hours. At the end of the 20 hour incubation, samples are incubated with fluorescent labeled antibodies for 30 minutes, at 37° C., 5% CO2, 100% humidity. Include induced control, unstained and single stains for compensation adjustments and initial voltage settings. Samples are then lysed with PharM Lyse™ (BD Biosciences Pharmingen) according to the manufacturer's instructions. Samples are then transferred to a 96 well plate suitable to be run on the BD Biosciences HTS 96 well system on the LSRII machine. Data acquired and Mean Fluorescence Intensity values were obtained using BD Biosciences DIVA Software. Results are initially analyzed by FACS analysis software (Flow Jo).

[3] = human whole blood, anti-IgM stimulated, 20 hour incubation, CD20 positive cells, FACS

| SMILES | Ki [1] | IC70 [2, 3] | IC70 ([2]; Homo sapiens, 20 h) |
| --- | --- | --- | --- |
| CC1(C)Cc2cc3n(c2C1)CCN(c1nccc(-n2cc(C(N)=O)c(Nc4ccccc4)n2)c1CO)C3=O [Example 101, 3-anilino-1-[2-(7,7-dimethyl-4-oxo-1,2,6,8-tetrahydrocyclopenta[3,4]pyrrolo[3,5-b]pyrazin-3-yl)-3-(hydroxymethyl)-4-pyridyl]pyrazole-4-carboxamide] | 2.4 nM | 0.0369 µM | – |
| CC1(C)Cc2cc3n(c2C1)CCN(c1cccc(-n2cc(C(N)=O)c(Nc4ccccn4)n2)c1CO)C3=O [Example 102, 1-[3-(7,7-dimethyl-4-oxo-1,2,6,8-tetrahydrocyclopenta[3,4]pyrrolo[3,5-b]pyrazin-3-yl)-2-(hydroxymethyl)phenyl]-3-(2-pyridylamino)pyrazole-4-carboxamide] | 1.01 nM | 0.166 µM | – |
| CC(C)(C)c1cc(F)c2c(=O)n(-c3nccc(-n4cc(C(N)=O)c(Nc5ccccn5)n4)c3CO)ncc2c1 [Example 106, 1-[2-(6-tert-butyl-8-fluoro-1-oxo-phthalazin-2-yl)-3-(hydroxymethyl)-4-pyridyl]-3-(2-pyridylamino)pyrazole-4-carboxamide] | 0.34 nM | – | 0.132 µM |
| CC1(C)Cc2cc3n(c2C1)CCN(c1nccc(-n2nc(C(N)=O)c4ccccc42)c1CO)C3=O [Example 108, 1-[2-(7,7-dimethyl-4-oxo-1,2,6,8-tetrahydrocyclopenta[3,4]pyrrolo[3,5-b]pyrazin-3-yl)-3-(hydroxymethyl)-4-pyridyl]indazole-3-carboxamide] | 1.83 nM | 0.726 µM | – |
| CC1(C)Cc2cc3n(c2C1)CCN(c1nccc(-n2nc(C(N)=O)c4cccnc42)c1CO)C3=O [Example 110, 1-[2-(7,7-dimethyl-4-oxo-1,2,6,8-tetrahydrocyclopenta[3,4]pyrrolo[3,5-b]pyrazin-3-yl)-3-(hydroxymethyl)-4-pyridyl]pyrazolo[3,4-b]pyridine-3-carboxamide] | 3.32 nM | 5.3 µM | – |
| Cn1cc(-c2nn(-c3ccnc(-n4ncc5cc(C(C)(C)C)cc(F)c5c4=O)c3CO)cc2C(N)=O)cn1 [Example 115, 1-[2-(6-tert-butyl-8-fluoro-1-oxo-phthalazin-2-yl)-3-(hydroxymethyl)-4-pyridyl]-3-(1-methylpyrazol-4-yl)pyrazole-4-carboxamide] | 0.997 nM | 0.268 µM | – |

Continued by falling Ki [1], values first:

| Ki [1] | SMILES | IC70 [2, 3] | IC70 ([2]; Homo sapiens, 20 h) |
| --- | --- | --- | --- |
| 0.924 nM | CC1(C)Cc2cc3n(c2C1)CCN(c1nccc(-n2cc(NC(=O)C4CC4)c(C(N)=O)n2)c1CO)C3=O [Example 109, 4-(cyclopropanecarbonylamino)-1-[2-(7,7-dimethyl-4-oxo-1,2,6,8-tetrahydrocyclopenta[3,4]pyrrolo[3,5-b]pyrazin-3-yl)-3-(hydroxymethyl)-4-pyridyl]pyrazole-3-carboxamide] | 0.0474 µM | – |
| 0.615 nM | CC1(C)Cc2cc3n(c2C1)CCN(c1nccc(-n2cc(C(N)=O)c(NC(=O)C4CC4)n2)c1CO)C3=O [Example 107, 3-(cyclopropanecarbonylamino)-1-[2-(7,7-dimethyl-4-oxo-1,2,6,8-tetrahydrocyclopenta[3,4]pyrrolo[3,5-b]pyrazin-3-yl)-3-(hydroxymethyl)-4-pyridyl]pyrazole-4-carboxamide] | 0.0521 µM | – |
| 0.565 nM | CC1(C)Cc2cc3n(c2C1)CCN(c1nccc(-n2cc(C(N)=O)c(Nc4ccccn4)n2)c1CO)C3=O [Example 103, 1-[2-(7,7-dimethyl-4-oxo-1,2,6,8-tetrahydrocyclopenta[3,4]pyrrole[3,5-b]pyrazin-3-yl)-3-(hydroxymethyl)-4-pyridyl]-3-(2-pyridylamino)pyrazole-4-carboxamide] | 0.127 µM | – |
| 0.436 nM | CC1(C)Cc2cc3n(c2C1)CCN(c1nccc(-n2cc(C(N)=O)c(NC(=O)[C@@H]4C[C@@H]4F)n2)c1CO)C3=O [Example 112, 1-[2-(7,7-dimethyl-4-oxo-1,2,6,8-tetrahydrocyclopenta[3,4]pyrrolo[3,5-b]pyrazin-3-yl)-3-(hydroxymethyl)-4-pyridyl]-3-[(2-fluorocyclopropanecarbonyl)amino]pyrazole-4-carboxamide] | 0.1 µM | – |
| 0.403 nM | CC(C)(C)c1cc(F)c2c(=O)n(-c3nccc(-n4cc(C(N)=O)c(Nc5ccc(Cl)cn5)n4)c3CO)ncc2c1 [Example 116, 1-[2-(6-tert-butyl-8-fluoro-1-oxo-phthalazin-2-yl)-3-(hydroxymethyl)-4-pyridyl]-3-[(5-chloro-2-pyridyl)amino]pyrazole-4-carboxamide] | 0.311 µM | – |
| 0.326 nM | Cn1cc(Nc2nn(-c3cccc(N4CCn5c(cc6c5CC(C)(C)C6)C4=O)c3CO)cc2C(N)=O)nn1 [Example 105, 1-[3-(7,7-dimethyl-4-oxo-1,2,6,8-tetrahydrocyclopenta[3,4]pyrrole[3,5-b]pyrazin-3-yl)-2-(hydroxymethyl)phenyl]-3-[(1-methyltriazol-4-yl)amino]pyrazole-4-carboxamide] | 0.0323 µM | – |
| 0.249 nM | CC1(C)Cc2cc3n(c2C1)CCN(c1cccc(-n2cc(C(N)=O)c(Nc4ccncn4)n2)c1CO)C3=O [Example 104, 1-[3-(7,7-dimethyl-4-oxo-1,2,6,8-tetrahydrocyclopenta[3,4]pyrrole[3,5-b]pyrazin-3-yl)-2-(hydroxymethyl)phenyl]-3-(pyrimidin-4-ylamino)pyrazole-4-carboxamide] | 0.0362 µM | – |
| 0.131 nM | Cn1cc(Nc2nn(-c3ccnc(-n4ncc5cc(C(C)(C)C)cc(F)c5c4=O)c3CO)cc2C(N)=O)nn1 [Example 111, 1-[2-(6-tert-butyl-8-fluoro-1-oxo-phthalazin-2-yl)-3-(hydroxymethyl)-4-pyridyl]-3-[(1-methyltriazol-4-yl)amino]pyrazole-4-carboxamide] | 0.0773 µM | – |
